Assay results from patent US20220235030A1, “SELECTIVE HISTAMINE H3 ANTAGONIST ACID ADDITION SALTS AND PROCESS FOR THE PREPARATION THEREOF” (RICHTER GEDEON NYRT., priority 2019, published 2022).
“Also recorded” adds a separate entry of the source. Structures can show the parent of a compound that is named as a salt.

Experiments:
Format in all cases: physicochemical
[1] = 10-day solid stress stability study, HPLC purity test; conditions: dihydrochloride salt
From the text: Increased stability to ambient humidity is beneficial for longer-term physical and chemical stability of the active ingredient. The relationship between the reduced hygroscopic nature and the increased chemical stability associated with it is shown in the most preferred citrate salts in comparison to the dihydrochloride salt.

[2] = Thermogravimetric (TG) analysis of thermal stability
From the text: The compound of 1-[4-(4-{3-[(2R)-2-methyl-pyrrolidin-1-yl]-propoxy}-phenoxy)-piperidin-1-yl]-ethanone contains a single strongly basic center (pyrrolidine nitrogen), which is capable of forming stoichiometric salt with equimolar hydrochloride, thus the formation of dihydrochloride stoichiometry is not expected in view of the acid/base character of the compound. Based on TG and DSC analysis, the second molar amount of hydrochloride is less strongly bound to the crystal lattice, behaving as a volatile component. […] (FIG. 8). Parallelly to this process, according to the DSC and microscopic analysis, the sample starting from approx. 100° C. melts during decomposition (FIG. 9).

[3] = Dynamic vapor sorption (DVS) analysis at 25° C., hygroscopicity and deliquescence; design: Δm/ΔRH: unit not given beside the values; conditions: for Δm/ΔRH: 25° C.
Experimental: Determination of the critical relative humidity is feasible by gravimetric method, e.g. with DVS, where relative humidity is changed in suitably selected steps and a sufficiently long time is used to the onset of quasi-equilibrium.
The deliquescence tendency of each salt is characterized by the critical relative humidity (CRH) value (Table 1), which was determined based on the sorption curves measured according to the measurement parameter settings below, with DVS analysis at 25° C. isotherm conditions, according to the following. […]
If the given sorption step is Δm/ΔRH≥0.5, then RH1 is considered to be the critical relative humidity (CRH) value indicating the end point of the physical stability of the substance. The value thus determined is a good match with the onset of a significant monotonic weight gain observed visually on the sorption curve. Above the critical relative humidity value, it is the process of deliquescence of the substance that determines the weight gain observed on the sorption curve.

[4] = Solubility in simulated gastric fluid; conditions: simulated gastric fluid (SGF without pepsin, pH=1.3); dihydrochloride salt
From the text: The generally observed hygroscopic nature of the 1-[4-(4-{3-[(2R)-2-methyl-pyrrolidin-1-yl]-propoxy}-phenoxy)-piperidin-1-yl]-ethanone salts is inter alia related to the good solubility thereof.

Q: What does the source list for CC(=O)N1CCC(Oc2ccc(OCCCN3CCC[C@H]3C)cc2)CC1 [diHCl, 1-[4-(4-{3-[(2R)-2-methyl-pyrrolidin-1-yl]-propoxy}-phenoxy)-piperidin-1-yl]-ethanone dihydrochloride salt]?
A: chemical stability (in words) ([1]; 10-day solid stress: heat, heat and humidity): slightly degraded by heat; also recorded: degrades significantly under the combined effect of heat and humidity; All contaminant (area %) ([1]; 10 days, 40° C., 75% RH, open glass): 59.56% area %; All contaminant (area %) ([1]; 10 days, 50° C., 75% RH, open glass): 51.32% area %; All contaminant (area %) ([1]; 10 days, 50° C., sealed glass): 0.98% area %; All contaminant (area %) ([1]; 10 days, 75° C., sealed glass): 1.50% area %; All contaminant (area %) ([1]; starting sample): 0.85% area %; thermal stability (in words) [2]: thermally poorly stable; Critical Relative Humidity (CRH) ([3]; DVS at 25° C., RH1 of first sorption step with Δm/ΔRH≥0.5, dihydrochloride salt): 60%; Δm/ΔRH ([3]; RH1 0%, sorption, dihydrochloride salt): 0.0; Δm/ΔRH ([3]; RH1 10%, sorption, dihydrochloride salt): 0.0; Δm/ΔRH ([3]; RH1 20%, sorption, dihydrochloride salt): 0.0; Δm/ΔRH ([3]; RH1 30%, sorption, dihydrochloride salt): 0.0; Δm/ΔRH ([3]; RH1 40%, sorption, dihydrochloride salt): 0.0; Δm/ΔRH ([3]; RH1 50%, sorption, dihydrochloride salt): 0.0; Δm/ΔRH ([3]; RH1 60%, sorption, dihydrochloride salt): 1.7; Δm/ΔRH ([3]; RH1 70%, sorption, dihydrochloride salt): 2.4; Δm/ΔRH ([3]; RH1 80%, sorption, dihydrochloride salt): 2.1; hygroscopicity (in words) ([3]; dihydrochloride salt): highly hygroscopic; relative weight gain ([3]; sorption curve, at 70% RH): 17%; relative weight change ([3]; sorption curve, at 90% RH): 63%; water bound relative to the dried mass ([3]; sorption curve, up to 60% RH): about 0.7%; relative humidity above which high, continuous weight gain (deliquescence) is observed ([3]; sorption, DVS at 25° C., dihydrochloride salt): above 60%; solubility [4]: greater than 59 mM
